Laboratory results published in patent US7462600B2, “Macrolides” (Pfizer Inc, priority 2004, dated 2008).
Converted amounts (≈) assume the structure as drawn. Like-named read-outs stand apart in the source and are kept apart here.

Legend:
Type in all cases: cell-based
[1] = test system: Streptococcus pneumoniae 1175; settings: microtiter broth dilution
Summary of the method: (§1)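 Panel strains, including macrolide-resistant isolates and their susceptible parents where available, are exposed to serial compound dilutions in microtiter trays. Growth inhibition is scored as MIC under NCCLS M100-S14 standards.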

[2] = test system: Streptococcus pneumoniae 1095; settings: microtiter broth dilution
Summary of the method: as §1

[3] = test system: Streptococcus pneumoniae 1016; experiment: MIC, microtiter broth dilution (NCCLS M100-S14), S. pneumoniae 1016 (susceptible)
Summary of the method: as §1

[4] = test system: Streptococcus pyogenes 1079; experiment: MIC, microtiter broth dilution (NCCLS M100-S14), S. pyogenes 1079 (ermB)
Summary of the method: as §1

[5] = test system: Haemophilus influenzae 1218; experiment: MIC, microtiter broth dilution (NCCLS M100-S14), H. influenzae 1218 (susceptible)
Summary of the method: as §1

[6] = S. pneumoniae 1016 (susceptible)
[7] = H. influenzae 1218 (susceptible)

SMILES	MIC S. pneumo. 1175 ([1]; Streptococcus pneumoniae 1175) [µg/mL]	MIC S. pneumo. 1095 ([2]; Streptococcus pneumoniae 1095) [µg/mL]	MIC S. pneumo. 1016 ([3]; Streptococcus pneumoniae 1016) [µg/mL]	MIC S. pyogenes 1079 ([4]; Streptococcus pyogenes 1079) [µg/mL]	MIC H. influenzae 1218 ([5]; Haemophilus influenzae 1218) [µg/mL]	MIC S. pneumo. 1175 ([1]; S. pneumoniae 1175 (mefA)) [µg/mL]	MIC S. pneumo. 1095 ([2]; S. pneumoniae 1095 (ermB)) [µg/mL]	MIC S. pneumo. 1016 [3, 6] [µg/mL]	MIC S. pyogenes 1079 ([4]; S. pyogenes 1079 (ermB)) [µg/mL]	MIC H. influenzae 1218 [5, 7] [µg/mL]
CCC1OC(=O)C(C)C(=O)C(C)C(OC2OC(C)CC(N(C)C)C2O)C(C)(OC)CC(C)C(=O)C(C)C2N(C3CN(Cc4cc(=O)[nH]c5ccc(Cl)cc45)C3)C(=O)OC12C (stereo not drawn) [Example 1.36, (6-chloro-1H-quinolin-2-on-4-yl)methyl]	0.12 (≈ 0.14 µM)	<0.06	<0.06	8 (≈ 9.31 µM)	0.5 (≈ 0.582 µM)					
CC[C@H]1OC(=O)[C@H](C)C(=O)[C@H](C)[C@@H](O[C@@H]2O[C@H](C)C[C@H](N(C)C)[C@H]2O)[C@](C)(OC)C[C@@H](C)C(=O)[C@H](C)[C@H]2N(CC3(O)CN(S(=O)(=O)c4c(C)n[nH]c4C)C3)C(=O)O[C@]12C [7.15]						4 (≈ 4.67 µM)	>64.00	<0.06	>64.00	2 (≈ 2.34 µM)
CCC1OC(=O)C(C)C(=O)C(C)C(OC2OC(C)CC(N(C)C)C2O)C(C)(OC)CC(C)C(=O)C(C)C2N(C3CN(Cc4ccnc5ccncc45)C3)C(=O)OC12C (stereo not drawn) [Example 1.27, 3-descladinosyl-11,12-dideoxy-6-O-methyl-3-oxo-12,11-(oxycarbonyl-(1-((1,6-naphthyridin-4-yl)-methyl)-azetidin-3-yl)-imino)-erythromycin A]	0.5 (≈ 0.617 µM)	<0.06	<0.06	2 (≈ 2.47 µM)	0.5 (≈ 0.617 µM)					
CCC1OC(=O)C(C)C(=O)C(C)C(OC2OC(C)CC(N(C)C)C2O)C(C)(OC)CC(C)C(=O)C(C)C2N(CC3CCN(C(=O)c4ccc5ncccc5c4)C3)C(=O)OC12C (stereo not drawn) [11.18]						2 (≈ 2.35 µM)	8 (≈ 9.4 µM)	<0.06	>64.00	2 (≈ 2.35 µM)
CCC1OC(=O)C(C)C(=O)C(C)C(OC2OC(C)CC(N(C)C)C2O)C(C)(OC)CC(C)C(=O)C(C)C2N(CC3C4CN(C(=O)c5cc(F)ccc5F)CC43)C(=O)OC12C (stereo not drawn) [16.03]						0.5 (≈ 0.59 µM)	1.56 (≈ 1.84 µM)	0.01 (≈ 0.0118 µM)	50 (≈ 59 µM)	0.5 (≈ 0.59 µM)
CCC1OC(=O)C(C)C(=O)C(C)C(OC2OC(C)CC(N(C)C)C2O)C(C)(OC)CC(C)C(=O)C(C)C2N(C3CN(S(=O)(=O)c4ccc(NC(C)=O)cc4)C3)C(=O)OC12C (stereo not drawn) [Example 3.108, 3-descladinosyl-11,12-dideoxy-6-O-methyl-3-oxo-12,11-(oxycarbonyl-(1-(4-acetamidobenzene-1-sulfonyl)-azetidin-3-yl)-imino)-erythromycin A]	0.5 (≈ 0.578 µM)	<0.063	<0.063	0.25 (≈ 0.289 µM)	1 (≈ 1.16 µM)					
CCC1OC(=O)C(C)C(=O)C(C)C(OC2OC(C)CC(N(C)C)C2O)C(C)(OC)CC(C)C(=O)C(C)C2N(C3CN(C(C)c4ccnc5cccnc45)C3)C(=O)OC12C (stereo not drawn) [Example 1.37, 3-descladinosyl-11,12-dideoxy-6-O-methyl-3-oxo-12,11-(oxycarbonyl-(1-(1R-(1,5-naphthyridin-4-yl)-ethyl)-azetidin-3-yl)-imino)erythromycin A]	0.25 (≈ 0.303 µM)	<0.06	<0.06	4 (≈ 4.85 µM)	1 (≈ 1.21 µM)					
CCC1OC(=O)C(C)C(=O)C(C)C(OC2OC(C)CC(N(C)C)C2O)C(C)(OC)CC(C)C(=O)C(C)C2N(CC3CCCN3C(=O)c3cc4cccnc4nc3C)C(=O)OC12C (stereo not drawn) [10.39]						0.5 (≈ 0.577 µM)	<0.06	<0.06	>64.00	2 (≈ 2.31 µM)
CCC1OC(=O)C(C)C(=O)C(C)C(OC2OC(C)CC(N(C)C)C2O)C(C)(OC)CC(C)C(=O)C(C)C2N(C3CN(C(=O)c4ccnc(-c5noc(C)n5)c4)C3)C(=O)OC12C (stereo not drawn) [Example 2.18]	0.5 (≈ 0.585 µM)	>64.00	<0.06	>64.00	32 (≈ 37.4 µM)					
CCC1OC(=O)C(C)C(=O)C(C)C(OC2OC(C)CC(N(C)C)C2O)C(C)(OC)CC(C)C(=O)C(C)C2N(CC3CCN(Cc4cccnc4OC)CC3)C(=O)OC12C (stereo not drawn) [15.06]						0.5 (≈ 0.602 µM)	>64.00	<0.06	>64.00	32 (≈ 38.5 µM)
CCC1OC(=O)C(C)C(=O)C(C)C(OC2OC(C)CC(N(C)C)C2O)C(C)(OC)CC(C)C(=O)C(C)C2N(C3CN(S(=O)(=O)c4ccc(-c5cnco5)cc4)C3)C(=O)OC12C (stereo not drawn) [Example 3.13, 3-descladinosyl-11,12-dideoxy-6-O-methyl-3-oxo-12,11-(oxycarbonyl-(1-(4-(oxazol-5-yl)-benzenesulfonyl)-azetidin-3-yl)-imino)-erythromycin A]	<0.06	0.12 (≈ 0.137 µM)	<0.06	4 (≈ 4.57 µM)	0.25 (≈ 0.286 µM)					
CCC1OC(=O)C(C)(F)C(=O)C(C)C(OC2OC(C)CC(N(C)C)C2O)C(C)(OC)CC(C)C(=O)C(C)C2N(CC3CCCN3C(=O)c3ccc4cccnc4n3)C(=O)OC12C (stereo not drawn) [10.30]						0.12 (≈ 0.138 µM)	<0.06	<0.06	32 (≈ 36.8 µM)	2 (≈ 2.3 µM)
CCC1OC(=O)C(C)C(=O)C(C)C(OC2OC(C)CC(N(C)C)C2O)C(C)(OC)CC(C)C(=O)C(C)C2N(CC3CCCN3C(=O)c3cccc4ncoc34)C(=O)OC12C (stereo not drawn) [10.23]						1 (≈ 1.19 µM)	<0.06	<0.06	>64.00	8 (≈ 9.51 µM)
CCC1OC(=O)C(C)C(=O)C(C)C(OC2OC(C)CC(N(C)C)C2O)C(C)(OC)CC(C)C(=O)C(C)C2N(CC3CCCN3C(=O)c3cc4ccccc4cn3)C(=O)OC12C (stereo not drawn) [12.09]						1 (≈ 1.18 µM)	1 (≈ 1.18 µM)	<0.06	>64.00	2 (≈ 2.35 µM)
CCC1OC(=O)C(C)C(=O)C(C)C(OC2OC(C)CC(N(C)C)C2O)C(C)(OC)CC(C)C(=O)C(C)C2N(CC3C4CN(C(=O)c5cccc(C#N)c5)CC43)C(=O)OC12C (stereo not drawn) [16.05]						1.56 (≈ 1.86 µM)	1.56 (≈ 1.86 µM)	0.01 (≈ 0.0119 µM)	3.12 (≈ 3.73 µM)	0.5 (≈ 0.597 µM)
CC[C@H]1OC(=O)[C@H](C)C(=O)[C@H](C)[C@@H](O[C@@H]2O[C@H](C)C[C@H](N(C)C)[C@H]2O)[C@](C)(OC)C[C@@H](C)C(=O)[C@H](C)[C@H]2N(CC3(O)CN(C(=O)c4ccc5cccnc5c4)C3)C(=O)O[C@]12C [7.21]						1 (≈ 1.17 µM)	0.5 (≈ 0.586 µM)	<0.06	>64.00	2 (≈ 2.34 µM)
CCC1OC(=O)C(C)C(=O)C(C)C(OC2OC(C)CC(N(C)C)C2O)C(C)(OC)CC(C)C(=O)C(C)C2N(C3CN(S(=O)(=O)c4cccc5ncccc45)C3)C(=O)OC12C (stereo not drawn) [Example 3.100, 3-descladinosyl-11,12-dideoxy-6-O-methyl-3-oxo-12,11-(oxycarbonyl-(1-(quinoline-5-sulfonyl)-azetidin-3-yl)-imino)-erythromycin A]	<0.063	<0.063	<0.063	0.125 (≈ 0.146 µM)	0.5 (≈ 0.582 µM)					
CCC1OC(=O)C(C)C(=O)C(C)C(OC2OC(C)CC(N(C)C)C2O)C(C)(OC)CC(C)C(=O)C(C)C2N(C3CN(C(=O)c4ccc(-n5cccn5)nc4)C3)C(=O)OC12C (stereo not drawn) [Example 2.20]	0.12 (≈ 0.143 µM)	1 (≈ 1.19 µM)	<0.06	>64.00	16 (≈ 19.1 µM)					
CCC1OC(=O)C(C)C(=O)C(C)C(OC2OC(C)CC(N(C)C)C2O)C(C)(OC)CC(C)C(=O)C(C)C2N(C3CN(S(=O)(=O)c4cccc5c(C#N)cccc45)C3)C(=O)OC12C (stereo not drawn) [Example 3.49]	<0.06	<0.06	<0.06	0.5 (≈ 0.566 µM)	0.5 (≈ 0.566 µM)					
CCC1OC(=O)C(C)C(=O)C(C)C(OC2OC(C)CC(N(C)C)C2O)C(C)(OC)CC(C)C(=O)C(C)C2N(C3CN(S(=O)(=O)c4ccc(OC(F)F)c5ncccc45)C3)C(=O)OC12C (stereo not drawn) [Example 3.113, 3-descladinosyl-11,12-dideoxy-6-O-methyl-3-oxo-12,11-(oxycarbonyl-(1-(8-(difluoromethoxy)quinoline-5-sulfonyl)-azetidin-3-yl)-imino)-erythromycin A]	<0.063	<0.063	<0.063	0.5 (≈ 0.541 µM)	1 (≈ 1.08 µM)					
CCC1OC(=O)C(C)C(=O)C(C)C(OC2OC(C)CC(N(C)C)C2O)C(C)(OC)CC(C)C(=O)C(C)C2N(CC3C4CN(Cc5cccnc5)CC43)C(=O)OC12C (stereo not drawn) [16.04]						>100.00	3.12 (≈ 3.9 µM)	0.03 (≈ 0.0375 µM)	>100.00	0.5 (≈ 0.626 µM)
